According to patent US9335323B2, “Method for sorting of pluripotent cells” (KYOTO UNIVERSITY, priority 2012, dated 2016):

How the values were obtained:
human iPS cells [1] = experiment: Sub-cellular localization in human iPS cells (co-staining with MitoRed, CCCP); assay type: cell-based; details: for cells in which mitochondria are stained: human iPS cells and feeder cells; for sub-cellular localization: human iPS cells on feeder cells
Protocol: Human iPS cells (clone#201B7) were plated on SNL feeder cells in 24-well plate. One day after plating, the cells were incubated with 1 μM Compound 1 for 4 hours at 37° C. After removing Compound 1 by washing with PBS, the cells were incubated with 9.6 nM MitoRed for 30 min at 37° C. The cells were rinsed with PBS and kept in fresh medium (without dye). Fluorescence microscopic images were taken by using Carl Zeiss Axioinvert 100M

[2] = test system: mitochondrial proteins of human iPS cells; experiment: 2-DE and mass analysis of mitochondrial proteins labeled in human iPS cells; assay type: cell-based; details: 1 μM, 4 hours, 2-dimensional SDS-PAGE
Protocol: Human iPS cells were treated with the chloroacetyl derivative of Compound 1 (Compound 22) (1 μM) for 4 hours, and then washed twice with PBS. After treatment with CTK solution (Reprocell) to remove SNL feeder cells, human iPS cells were harvested with treatment of accutase. Mitochondria fraction was obtained from the cell pellet by using ProteoExtract® Cytosol/Mitochondria Fractionation kit according to the manufacturer's instruction. Isoelectric focusing (IEF) was performed by using ampholine (pH 3.5-10, Phamalyte 3-10 for IEF, GE Healthcare). Then, the IEF strips were separated on 10% SDS-PAGE gel for 2D analysis. 2D fluorescence image was acquired using the Typhoon 9400 scanner (GE healthcares) at excitation/emission wavelengths of 532 nm/580 nm. The fluorescence-labeled spots were excised from the gel for mass analysis.

human iPS cells [3] = experiment: Image-based screening: fluorescence staining of human iPS cells versus feeder cells; assay type: cell-based; details: fluorescence images, human iPS cells on SNL feeder cells, FIG. 1A
Protocol: Fluorescent-compound libraries were provided from Young-Tae Chang's group (Ahn, Y-H., Lee, J-S. and Chang, Y-T. J. Am. Chem. Soc. 2007, 129, 4510-4511). Human iPS cells (clone#[…]) were plated on SNL feeder cells in 96-well plate. Five days after plating, fluorescent compounds were added at the final concentration of 4 μM. After incubation overnight, fluorescence microscopic images were taken by using Carl Zeiss Axioskop.

ABCB1 (MDR1) [4] = experiment: Accumulation of fluorescent compound in KB3-1 and KB/MDR1 cells; assay type: cell-based, human; details: KB3-1 cells with no MDR1 expression, 2 hrs
Protocol: (§1) KB/MDR1, stably expressing human MDR1, and KB3-1 host cells (Ueda, K et al., PNAS 84, 3004-3008, 1987) were maintained in DMEM supplemented with 10% FBS in a humidified incubator (5% CO2) at 37° C. Cells were subcultured in 35 mm/glass base dish (IWAKI) at a density of 5×10^5 cells per dish in DMEM containing 10% FBS for 24-48 hours.

ABCB1 (MDR1) [5] = target: T1, ABCB1 (MDR1) (Homo sapiens, UniProt P08183); experiment: as above; assay type: cell-based
T1 construct: expressed in transfected cells; host or cells: KB/MDR1 (derived from KB3-1)
T1 sequence (P08183 whole entry): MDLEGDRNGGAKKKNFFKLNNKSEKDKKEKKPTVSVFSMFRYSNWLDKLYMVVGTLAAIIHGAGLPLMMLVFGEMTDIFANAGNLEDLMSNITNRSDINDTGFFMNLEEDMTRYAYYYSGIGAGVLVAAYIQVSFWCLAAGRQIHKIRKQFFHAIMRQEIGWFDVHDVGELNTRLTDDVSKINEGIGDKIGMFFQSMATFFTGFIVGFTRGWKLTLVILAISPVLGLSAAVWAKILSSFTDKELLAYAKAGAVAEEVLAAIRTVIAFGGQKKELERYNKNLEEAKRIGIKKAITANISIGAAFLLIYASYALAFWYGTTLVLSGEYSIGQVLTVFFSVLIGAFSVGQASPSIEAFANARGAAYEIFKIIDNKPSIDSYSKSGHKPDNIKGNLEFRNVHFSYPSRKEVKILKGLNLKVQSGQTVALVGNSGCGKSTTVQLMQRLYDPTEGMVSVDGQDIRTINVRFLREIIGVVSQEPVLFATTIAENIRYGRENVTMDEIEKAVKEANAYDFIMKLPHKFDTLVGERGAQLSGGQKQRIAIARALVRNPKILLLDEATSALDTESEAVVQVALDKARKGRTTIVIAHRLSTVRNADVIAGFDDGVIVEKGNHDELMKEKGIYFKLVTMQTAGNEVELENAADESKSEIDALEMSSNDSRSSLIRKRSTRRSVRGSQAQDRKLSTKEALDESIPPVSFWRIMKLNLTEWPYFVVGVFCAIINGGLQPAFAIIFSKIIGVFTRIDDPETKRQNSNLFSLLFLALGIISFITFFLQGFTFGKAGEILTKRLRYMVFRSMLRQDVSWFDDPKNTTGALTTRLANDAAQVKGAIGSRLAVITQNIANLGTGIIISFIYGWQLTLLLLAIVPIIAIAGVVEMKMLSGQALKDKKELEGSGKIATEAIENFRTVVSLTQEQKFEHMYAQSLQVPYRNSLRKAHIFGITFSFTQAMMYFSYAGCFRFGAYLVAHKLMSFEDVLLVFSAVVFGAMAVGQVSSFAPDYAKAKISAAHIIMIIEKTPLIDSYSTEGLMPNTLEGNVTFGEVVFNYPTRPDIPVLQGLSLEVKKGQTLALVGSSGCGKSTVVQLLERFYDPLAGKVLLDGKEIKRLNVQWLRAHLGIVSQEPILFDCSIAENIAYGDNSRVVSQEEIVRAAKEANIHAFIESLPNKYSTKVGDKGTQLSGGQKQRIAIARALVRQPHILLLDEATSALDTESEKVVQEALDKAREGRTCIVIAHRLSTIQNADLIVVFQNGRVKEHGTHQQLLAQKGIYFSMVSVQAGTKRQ
Protocol: as §1

ABCG2 = target: T2, ABCG2 (Homo sapiens, UniProt Q9UNQ0); experiment: Accumulation of fluorescent compound in cells with different ABCG2 expression; assay type: cell-based; details: stained cells regardless of expression level
T2 sequence (Q9UNQ0 1-655): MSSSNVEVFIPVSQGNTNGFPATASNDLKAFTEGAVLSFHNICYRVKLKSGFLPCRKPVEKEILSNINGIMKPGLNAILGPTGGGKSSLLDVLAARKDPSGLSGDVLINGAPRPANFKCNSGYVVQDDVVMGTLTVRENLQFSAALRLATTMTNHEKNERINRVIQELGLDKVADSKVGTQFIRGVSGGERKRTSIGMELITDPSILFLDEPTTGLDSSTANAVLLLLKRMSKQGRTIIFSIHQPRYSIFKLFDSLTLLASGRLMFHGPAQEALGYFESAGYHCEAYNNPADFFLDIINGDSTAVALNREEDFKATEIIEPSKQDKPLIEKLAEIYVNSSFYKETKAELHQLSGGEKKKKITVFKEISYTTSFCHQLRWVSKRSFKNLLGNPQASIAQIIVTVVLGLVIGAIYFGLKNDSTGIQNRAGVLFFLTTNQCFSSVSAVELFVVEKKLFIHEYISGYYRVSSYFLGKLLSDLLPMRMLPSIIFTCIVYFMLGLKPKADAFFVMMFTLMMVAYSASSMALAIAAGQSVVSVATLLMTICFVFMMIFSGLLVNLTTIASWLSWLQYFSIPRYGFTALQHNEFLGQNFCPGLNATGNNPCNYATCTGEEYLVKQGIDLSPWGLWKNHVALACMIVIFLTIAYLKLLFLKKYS
Protocol: (§2) Cells were subcultured in 35 mm/glass base dish (IWAKI) at a density of 5×10^5 cells per dish in DMEM containing 10% FBS for 24-48 hours. Then, cells were incubated in DMEM containing 10% FBS and the compounds for 2 hours at 37° C., washed with phosphate-buffered saline (PBS), and observed using a confocal microscope (LSM 700; Carl Zeiss).
(§3) MDR1-expressing model cell lines (KB/MDR1) were established from KB3-1, a cell line with no MDR1 expression. KB/MDR1 and KB3-1 were treated with Compound 1 for 2 hrs. Then, their images were observed under a fluorescent microscope (FIG. 4c, 4d). […] Similar experiments were conducted with ABCG2 and ABCC1 (MRP1).

human ES cells [6] = experiment: Microscopy and FACS of human ES cells and differentiated cells; assay type: cell-based
Protocol: Cells were prepared as above. After staining with 1 μM Compound 1 for 1 hour, cells were rinsed with PBS and cultured for additional 24 hours. Fluorescent microscopy was performed by using Olympus IX71 with DP72. CsA was added at the concentration of 10 μM during staining with Compound 1 and following culture until analysis. For FACS analysis, the cells were washed twice with ice-cold PBS and then dissociated with 0.25% trypsin-EDTA into a single cell suspension for direct analysis. The proportions of cells with Compound 1 were examined on a FACSCalibur flow cytometer (Becton Dickenson, Calif., USA) with reference to a baseline of untreated undifferentiated or differentiated hESCs.

ABCC1 (MRP1) = ABCC1 (MRP1) (Homo sapiens, UniProt P33527); experiment: Accumulation of fluorescent compound in cells with different ABCC1 (MRP1) expression; assay type: cell-based; details: stained cells regardless of expression level
Sequence of ABCC1 (MRP1) (P33527 whole entry): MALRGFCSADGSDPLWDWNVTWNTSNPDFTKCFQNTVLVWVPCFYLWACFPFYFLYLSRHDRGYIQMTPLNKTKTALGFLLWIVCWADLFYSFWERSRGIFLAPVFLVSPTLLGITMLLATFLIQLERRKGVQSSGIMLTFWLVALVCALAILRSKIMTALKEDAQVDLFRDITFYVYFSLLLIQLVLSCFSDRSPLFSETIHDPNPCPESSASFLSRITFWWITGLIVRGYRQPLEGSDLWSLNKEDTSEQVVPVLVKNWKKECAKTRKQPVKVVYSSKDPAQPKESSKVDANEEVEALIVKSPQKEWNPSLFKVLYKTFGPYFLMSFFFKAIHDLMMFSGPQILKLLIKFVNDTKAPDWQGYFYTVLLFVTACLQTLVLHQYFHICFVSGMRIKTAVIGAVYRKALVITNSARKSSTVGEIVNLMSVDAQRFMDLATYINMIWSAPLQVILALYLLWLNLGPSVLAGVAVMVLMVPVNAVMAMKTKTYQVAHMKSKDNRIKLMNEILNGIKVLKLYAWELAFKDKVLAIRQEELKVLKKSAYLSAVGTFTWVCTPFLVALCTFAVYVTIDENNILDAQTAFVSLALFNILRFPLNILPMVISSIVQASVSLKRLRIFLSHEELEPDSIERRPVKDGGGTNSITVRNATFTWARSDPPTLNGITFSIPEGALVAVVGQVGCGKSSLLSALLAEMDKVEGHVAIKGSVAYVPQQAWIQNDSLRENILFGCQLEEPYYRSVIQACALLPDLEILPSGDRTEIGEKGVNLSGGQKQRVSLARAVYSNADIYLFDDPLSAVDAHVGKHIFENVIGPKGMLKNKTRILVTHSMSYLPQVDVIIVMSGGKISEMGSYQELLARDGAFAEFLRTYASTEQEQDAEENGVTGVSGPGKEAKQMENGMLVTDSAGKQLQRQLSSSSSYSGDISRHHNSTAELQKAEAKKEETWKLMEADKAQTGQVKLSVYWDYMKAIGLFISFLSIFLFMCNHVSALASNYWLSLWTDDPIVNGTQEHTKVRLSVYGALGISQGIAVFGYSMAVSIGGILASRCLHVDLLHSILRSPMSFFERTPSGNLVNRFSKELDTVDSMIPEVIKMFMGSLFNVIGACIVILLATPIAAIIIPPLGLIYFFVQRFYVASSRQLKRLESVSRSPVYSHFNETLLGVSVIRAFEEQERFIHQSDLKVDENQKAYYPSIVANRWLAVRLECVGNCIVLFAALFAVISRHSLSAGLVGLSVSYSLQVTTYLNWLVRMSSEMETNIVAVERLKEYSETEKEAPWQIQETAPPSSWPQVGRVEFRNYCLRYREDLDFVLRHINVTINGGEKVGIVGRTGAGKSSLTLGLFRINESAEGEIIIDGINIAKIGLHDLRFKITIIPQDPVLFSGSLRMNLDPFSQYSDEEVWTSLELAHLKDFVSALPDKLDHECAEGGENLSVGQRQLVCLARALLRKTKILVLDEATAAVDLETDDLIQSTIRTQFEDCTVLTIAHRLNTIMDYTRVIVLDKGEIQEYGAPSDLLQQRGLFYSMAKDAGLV
Protocol: as §2, §3

human iPS cells [7] = experiment: Fluorescence microscopic imaging of partially differentiated human iPS cells (donut-shaped colonies); assay type: cell-based; details: over-grown, 4 μM, 4.5 hours
Protocol: Human iPS cells (clone#201B7) were plated on SNL feeder cells in 96-well plate. […] These cells were incubated with 4 μM Compound 1 for 4.5 hours at 37° C. Fluorescence microscopic images were taken by using Carl Zeiss Axioskop.

human iPS cells [8] = experiment: Flow cytometry (FACS) of mixtures of human iPS cells and feeder cells; assay type: cell-based
Protocol: Human iPS cells (clone#201B7) cells (Takahashi, K. et al. Cell 2007, 131, 861-872) were plated at a density of 2×10^5 cells/well of 6-well plate on SNL feeder cells (McMahon, A. P. and Bradley, A., Cell, 62, 1073-1085, 1990). Six days after plating, the cells were incubated with 2 μM Compound 1 (Table 2) for 3 hours (fluorescence microscopic images were taken at this point). The cells were dissociated with Accutase (Invitrogen) into single cells and stained with a-SSEA-4-Alexa647 for 30 min at room temperature. After washing, FACS (FACS Aria II) analysis was performed.

human ES cells [9] = experiment: Fluorescence microscopic imaging of human ES cells and retinoic acid-differentiated cells; assay type: cell-based; details: 1 μM, 2 hours
Protocol: The hES cell line KhES-1 was maintained as described previously (Suemori, H. et al. Biochem. Biophys. Res. Commun. 2006, 345, 926-932). To induce differentiation of hESCs, cells seeded onto Matrigel-coated plate were cultured for 4 days with 500 nM all-trans retinoic acid (Sigma R2625) in DMEM supplemented with 10% FBS. After staining with 1 μM Compound 1 for 2 hours, cells were rinsed with PBS and kept in fresh medium (without dye). Fluorescent microscopy was performed by using Olympus IX71 with DP72.

[10] = doubly stained with Compound 1 and anti-SSEA-4 antibody
[11] = mixture of human iPS cells and feeder cells, 2 μM, 3 hours, flow cytometry

Compound: ClCc1ccc(C2=c3cc4c5c(c3Oc3c2cc2c6c3CCCN6CCC2)CCC[N+]=5CCC4)cc1.[Cl-] [MitoRed, reference compound]
- cells in which mitochondria are stained (human iPS cells [1]): both in human iPS cells and feeder cells

Compound: N=c1ccc2c(-c3ccc(F)cc3)c3ccc(NCCCCCCCCCCNC(=O)CCl)cc3oc-2c1 [Compound 22]
- fluorescently labeled mitochondrial protein identified by mass-sequencing [2]: ADH1 protein
- selectivity for human iPS cells relative to Compound 1 (human iPS cells [1]; human iPS cells): slightly less than that of Compound 1
- sub-cellular localization (human iPS cells [1]): localized in mitochondria of human iPS cells

Compound: C/N=c1\ccc2c(-c3ccc(F)cc3)c3ccc(NC)cc3oc-2c1 [Compound 35]
- staining of human iPS cells compared with feeder cells (human iPS cells [3]): stained human iPS cells stronger than feeder cells

Compound: N=c1ccc2c(-c3ccccc3F)c3ccc(N)cc3oc-2c1 [Compound 36]
- staining of human iPS cells compared with feeder cells (human iPS cells [3]): stained human iPS cells stronger than feeder cells

Compound: N=c1ccc2c(-c3ccc(F)cc3)c3ccc(N)cc3oc-2c1 [Compound 1]
- staining of KB3-1 cells (ABCB1 (MDR1) [4]): strongly stained
- fluorescent signals in MDR1-expressing cells (ABCB1 (MDR1) [5]; KB/MDR1 cells, 2 hrs): undetectable
- substrate for ABCB1 (MDR1) (ABCB1 (MDR1) [5]; KB/MDR1 versus KB3-1): good substrate
- substrate for ABCG2 (ABCG2): not a substrate
- fluorescence of human ES cells (human ES cells [6]; 1 μM, 1 hour, microscopy): strong fluorescence
- labeling of differentiated cells in the presence of cyclosporine A (human ES cells [6]; cyclosporine A (MDR1 inhibitor) 10 μM): even the differentiated cells were labeled
- fluorescence of differentiated cells (human ES cells [6]; derived from human ES cells by retinoic acid, 1 μM, 1 hour, microscopy): little
- staining of human ES cells relative to differentiated cells (human ES cells [6]; flow cytometric analysis): ~100 times
- substrate for ABCC1 (MRP1) (ABCC1 (MRP1)): not a substrate
- staining of donut-shaped iPS cell colonies (human iPS cells [7]): selectively stained undifferentiated parts of those colonies but not the central parts
- SSEA-4-negative cells not stained by Compound 1 (human iPS cells [8]; [10]): 55.2%
- SSEA-4-positive cells also stained by Compound 1 (human iPS cells [8]; [10]): 42.4%
- specificity of staining for iPS cells (human iPS cells [8]; human iPS cells versus feeder cells): capable of staining iPS cells specifically
- Compound 1-negative population (human iPS cells [8]; [11]): 56.6%
- Compound 1-positive population (human iPS cells [8]; [11]): 43.4%
- staining pattern in the presence of CCCP (human iPS cells [1]; CCCP 5 μM, 1 μM, 2 hours): remained the same
- cells in which mitochondria are stained (human iPS cells [1]): only in iPS cells
- sub-cellular localization (human iPS cells [1]): overlaps with that of MitoTracker Red
- staining after partial differentiation by retinoic acid (human ES cells [9]; 500 nM retinoic acid 4 days): less densely stained parts of colonies
- staining of human ES cell colonies compared with feeder cells (human ES cells [9]): stained more strongly than feeder cells
